Test results published in patent publication US9744175B2, “Compositions of combinations of non-covalent DNA binding agents and anti-cancer and/or anti-inflammatory agents and their use in disease treatment” (INDUS PHARMACEUTICALS, INC., priority 2012, dated 2017).
Several values for one entry are separate records, joined by “and”; a condition that tells them apart may be missing. Equal entries are not always repeated.

Columns and labels:
SW480 = assay: Growth inhibition in tumor cell lines (Table 2); format: cell-based, human; conditions: SW480, colon, KRAS mutation
Description: (§1) Three novel non-covalent DNA binding agents of the invention, NSC 718813, NSC 723734 and NSC 726260, are tested in five different EGFR-resistant, K-Ras mutant cancer cell lines. These cell lines represent colorectal (SW480, SW620 and HCT116) and breast cancer (MDA-MB-231 and […]).
(§2) The in vitro assays to evaluate the anticancer potential of non-covalent DNA binding agents were measured by using one or more of the assays described below.
(§3) Tumor cells are plated in 96 well plates at a density of 8,000 to 10,000 cells per well in 100 uL volume and grown overnight. On the second day, the cells are supplemented with medium containing an appropriate dilution of the compounds to be tested. The cells are treated with the test compounds for two more days and the growth medium was replaced with fresh medium containing 3% Alamar Blue, incubated for 2-3 hours and plates are read in a SpectraMax Gemini XS fluorescence plate reader (Molecular Devices).

MDA231 = assay: Growth inhibition in tumor cell lines (Table 2); format: cell-based, human; conditions: MDA231, breast, KRAS & BRAF (ERK+)
Description: as §1, §2, §3

MDA-MB-468 = assay: Growth inhibition in tumor cell lines (Table 2); format: cell-based, human; conditions: MDA-MB-468, breast, ERK+ (EGFR over expression), PTEN deficiency
Description: as §1, §2, §3

SW620 = assay: Growth inhibition in tumor cell lines (Table 2); format: cell-based, human; conditions: SW620, colon, KRAS mutation
Description: as §1, §2, §3

CEM = assay: Growth inhibition in tumor cell lines (Table 2); format: cell-based, human; conditions: leukemia, PTEN deficiency
Description: as §1, §2, §3

HCT116 = assay: Growth inhibition in tumor cell lines (Table 2); format: cell-based, human; conditions: HCT116, colon, KRAS mutation, MLH1 deficiency
Description: as §1, §2, §3

[1] = Intravenous and oral pharmacokinetics in male Sprague-Dawley rats; format: in vivo, rat; conditions: for AUC0-inf / AUC0-t / Cmax / Tmax: rat blood; for AUC0-inf / AUC0-t / Cmax: mean ± SD; for Tmax: median; for T1/2: harmonic mean; for F (oral absolute bioavailability): oral 20 mg/kg vs IV 3 mg/kg, dose-normalised AUC0-inf; for clearance as share of normal liver blood flow in rat (55 mL/min/kg) / mean volume of distribution as multiple of total body water: intravenous administration
Description: Intravenous and oral pharmacokinetic studies are conducted on the novel non-covalent DNA binding agents, NSC 718813, NSC 723734 and NSC 726260, in male Sprague-Dawley rats. The studies are conducted in a parallel design with two groups of four male rats each for intravenous and oral administration of the test agents. The protocols for the studies are approved by the appropriate institutional animal care and use committee.
Groups of rats designated to receive oral doses of the novel non-covalent DNA binding agents of the invention molecules receive an oral dose of 20 mg/kg in a formulation vehicle comprised of N,N-dimethylacetamide (DMA), polyethylene glycol 400 (PEG400), ethanol, Cremophor EL and water (10:10:10:5:65 v/v). The dose volume for the oral doses of the test compounds is 8 mL/kg. Groups of rats are randomized to receive intravenous doses of agents. These rats receive a single intravenous bolus dose of 3 mg/kg of the test compound in a vehicle comprised of DMA:PEG400:ethanol:Cremophor EL:0.9% sodium chloride (saline) (10:10:10:5:65 v/v). The dose volume for intravenous doses of test agents is 1 mL/kg.
Predose blood samples are obtained from all rats from both, oral and intravenous dosing groups. For the intravenously dosed rats, blood samples (100 uL each) are obtained at 0.083, 0.25. 0.5, 1.0, 2.0, 4.0, 8.0, 12.0 and 24.0 hours post-dose. For the oral dose groups, the sampling times are identical to the intravenous dose group, except that the 0.083 hour sample is not collected. Following the collection of the blood samples, an equal volume of water is added to the blood sample to hemolyze the blood sample and the samples are stored frozen at −70° C. until bioanalysis.
Plasma samples are analyzed for the concentration of the test non-covalent DNA binding agents of the invention using an HPLC method with mass spectrometric (MS/MS) detection, following a liquid:liquid extraction of the plasma samples using a dichloromethane:ethyl acetate (20:80) mixture. To a 100 μL aliquot of sample, 50 μL of an internal standard (NSC 723732) is added. After mixing the internal standard wen, 2.5 mL of the extracting solvent (dichloromethane:ethyl acetate 20:80 v/v) is added. The mixture is vortexed for one minute and the samples are centrifuged at 3000 rpm for 3 minutes. Approximately 2 mL of the supernatant is taken from the centrifuged tubes and the sample is dried under a nitrogen stream at 50° C. The residue is reconstituted with 100 μL of the mobile phase and 20 μL is injected into the HPLC system for analysis. The mobile phase is comprised of milli-Q water:acetonitrile:formic acid (20:80:0.05) adjusted to pH 7.5 with ammonia.
The analysis of the test agent concentration is conducted by an HPLC method using a Shimadzu Prominence HPLC system and the eluent is analyzed using an API 4000 LC-MS/MS system (Applied Biosystems). The samples are analyzed on a HyPurity Advance, 50×4.6 mm, 5 u, Thermoelectron column. An injection volume of 20 μL is used for the analytical sample and the flow rate of the mobile phase is 0.6 mL/minute. Mass spectrometric analysis is conducted on the eluent using the API 4000 LC-MS/MS system and the mass parameters are analyzed for MRM transitions using NSC 723732 as the internal standard, in a positive ionization mode at a temperature of 400 C.

[2] = test system: homologous recombination repair deficiencies; assay: Synthetic lethality with homologous recombination repair deficiencies (FIG. 8); format: cell-based; conditions: FIG. 8 legend
[3] = IV-bolus 3 mg/kg, rat, listed as NSC723734, 3 mg/kg

SMILES | IC50 (SW480) [nM] | IC50 (MDA231) [nM] | IC50 (MDA-MB-468) [nM] | IC50 (SW620) [nM] | IC50 (CEM) [nM] | IC50 (HCT116) [nM] | Vdss ([1]; IV-bolus 3 mg/kg, rat) [L/kg] | AUC0-inf ([1]; IV-bolus 3 mg/kg) [ng·h/mL] | AUC0-t ([1]; IV-bolus 3 mg/kg) [ng·h/mL] | Cmax ([1]; IV-bolus 3 mg/kg) [ng/mL] | Tmax ([1]; IV-bolus 3 mg/kg) [h] | T1/2 ([1]; IV-bolus 3 mg/kg, rat) [h] | CLblood ([1]; IV-bolus 3 mg/kg, rat, 3 mg/kg) | F (oral absolute bioavailability) ([1]; rat) [%] | AUC0-inf ([1]; oral solution 20 mg/kg) [ng·h/mL] | AUC0-t ([1]; oral solution 20 mg/kg) [ng·h/mL] | Cmax ([1]; oral solution 20 mg/kg) [ng/mL] | Tmax ([1]; oral solution 20 mg/kg) [h] | T1/2 ([1]; oral solution 20 mg/kg, rat) [h] | synthetic lethality with homologous recombination repair deficiencies [2] | also measured
COc1cc2c(cc1OCCCCCOc1cc3c(cc1OC)C(=O)N1CCC[C@H]1C(=O)N3)N=C[C@@H]1CCCN1C2=O [NSC 718813] | 48 | 54 | 8 ± 1.2 | 236 ± 37.2 | 51 ± 0.6 | 17 | 1.5 ± 0.4 | 2424 ± 309 | 2376 ± 304 | 5723 ± 1005 | 0.08 | 2.2 ± 0.4 | approximately 20 mL/min/kg | 2 | 345 ± 142 | 303 ± 129 | 112 ± 32 | 0.5 | 1.8 ± 0.6 | – | CLblood ([1]; IV-bolus 3 mg/kg, rat, listed as NSC 718813/1, 3 mg/kg): 20.0 ± 2.9 mL/min/kg; time with rat blood concentrations well above in vitro GI50 and/or TGI ([1]; intravenous 3 mg/kg): at least 4 hours; time with measurable blood levels post-dose ([1]; oral dose 20 mg/kg): up to 8 hours; metabolic stability compared with naturally occurring antitumor antibiotic analogs ([1]; rat, inferred from systemic clearance): better metabolic stability
COc1cc2c(cc1OCCCCN1CCN(CCCCOc3cc4c(cc3OC)C(=O)N3CCC[C@H]3C=N4)CC1)N=C[C@@H]1CCCN1C2=O [NSC 723734] | 575 | 394 | 22 ± 0.7 | 175 ± 25 | 49 ± 0.8 | 160 | – | 4405 | 4246 ± 311 | 4053 | 0.083 | 6.3 | 11.4 ± 0.5 mL/min/kg | 0.7 | 216 | 196 ± 93 | 90.5 ± 56 | 0.25 | 2.3 ± 0.7 | synthetic lethal | Vdss ([1]; IV-bolus 3 mg/kg, rat, 3 mg/kg): 3.2 ± 0.3 L/kg; CLblood [1, 3]: 11 mL/min/kg; Vdss [1, 3]: 3 L/kg; clearance as share of normal liver blood flow in rat (55 mL/min/kg) ([1]; rat): about 20%; mean volume of distribution as multiple of total body water ([1]; rat): about 4 times; F (oral absolute bioavailability) ([1]; rat, listed as NSC723734): approximately 1%; Cmax ([1]; oral solution 20 mg/kg, listed as NSC723734): 91 ng/mL
COc1cc2c(cc1OCCCC(=O)Nc1ccc3ccc4cccc5ccc1c3c45)N=C[C@@H]1CCCN1C2=O [NSC 726260] | 1080 | 501 | 364 | 1050 ± 50 | 161 ± 0.4 | 550 | 1.9 | 5112 | 5058 ± 874 | 5587 | 0.083 | 4.8 | 10.4 mL/min/kg and 10.4 ± 2.0 mL/min/kg | – | 2536 | 2474 ± 844 | 438 | 4.0 | 4.6 ± 1.7 | synthetic lethal | clearance as share of normal liver blood flow in rat (55 mL/min/kg) ([1]; rat): about 20%; mean volume of distribution as multiple of total body water ([1]; rat): about 3 times
